Where two headings read alike, the source gives them in different places.
How the values were obtained:
[1] = biological target: T1, mineralocorticoid receptor (Homo sapiens (Human), UniProt P08235); assay: Mineralocorticoid receptor binding test (displacement of 3H-aldosterone, cytosol from Hi5 insect cells); details: reference substance 3H-aldosterone
Method: 2. Mineralocorticoid Receptor Binding Test:
The test was carried out as in 1., with the following modifications: cytosol from mineralocorticoid receptor-expressing insect cells (Hi5) was used, and the reference substance was ^3H-aldosterone.

androgen receptor [2] = biological target: T2, androgen receptor (Homo sapiens (Human), UniProt P10275); details: for IC50: read-out: Androgen receptor IC50, receptor binding, 3H-testosterone displacement; for Androgen receptor Competition factor: reference substance 3H-testosterone
T2 sequence (P10275 whole entry, species assumed): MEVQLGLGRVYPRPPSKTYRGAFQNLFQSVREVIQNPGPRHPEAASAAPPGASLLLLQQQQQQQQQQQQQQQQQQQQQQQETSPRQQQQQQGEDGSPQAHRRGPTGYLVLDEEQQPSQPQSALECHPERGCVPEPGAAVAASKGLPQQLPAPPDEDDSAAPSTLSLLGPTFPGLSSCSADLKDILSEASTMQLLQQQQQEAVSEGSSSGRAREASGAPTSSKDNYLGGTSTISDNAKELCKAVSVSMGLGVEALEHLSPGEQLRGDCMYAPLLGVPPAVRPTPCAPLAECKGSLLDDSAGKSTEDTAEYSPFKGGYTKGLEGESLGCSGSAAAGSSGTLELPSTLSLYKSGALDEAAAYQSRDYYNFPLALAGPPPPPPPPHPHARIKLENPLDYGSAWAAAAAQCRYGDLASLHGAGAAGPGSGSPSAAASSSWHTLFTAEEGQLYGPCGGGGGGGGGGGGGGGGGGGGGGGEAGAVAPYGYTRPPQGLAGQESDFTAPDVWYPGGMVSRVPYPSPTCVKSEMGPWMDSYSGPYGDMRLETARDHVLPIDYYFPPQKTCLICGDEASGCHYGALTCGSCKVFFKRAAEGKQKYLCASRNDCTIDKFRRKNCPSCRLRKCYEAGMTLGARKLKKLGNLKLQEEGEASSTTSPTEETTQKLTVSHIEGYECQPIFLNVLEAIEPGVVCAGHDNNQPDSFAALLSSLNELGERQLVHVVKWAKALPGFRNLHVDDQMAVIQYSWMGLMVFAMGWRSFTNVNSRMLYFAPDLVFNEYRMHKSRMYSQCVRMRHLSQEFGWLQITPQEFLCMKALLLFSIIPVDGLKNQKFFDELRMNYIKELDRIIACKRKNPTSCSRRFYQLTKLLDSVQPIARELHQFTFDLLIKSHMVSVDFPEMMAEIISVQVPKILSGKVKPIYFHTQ
Method: 3. Androgen Receptor Binding Test:
The test was carried out as in 1., with the following modifications: cytosol from androgen receptor-expressing insect cells (Hi5) was used, and the reference substance was ^3H-testosterone.

[3] = biological target: fusion protein from the PR-ligand-binding domain and a Gal4-transactivation domain (Homo sapiens (Human), UniProt P06401); assay: cell-based; details: for Progesterone receptor Agonism EC50 / Progesterone receptor Agonism efficacy: in-vitro transactivation, CHO K1 reporter cells; for Progesterone receptor Agonism EC50: 16 hours
Chain of fusion protein from the PR-ligand-binding domain and a Gal4-transactivation domain (P06401 679-913): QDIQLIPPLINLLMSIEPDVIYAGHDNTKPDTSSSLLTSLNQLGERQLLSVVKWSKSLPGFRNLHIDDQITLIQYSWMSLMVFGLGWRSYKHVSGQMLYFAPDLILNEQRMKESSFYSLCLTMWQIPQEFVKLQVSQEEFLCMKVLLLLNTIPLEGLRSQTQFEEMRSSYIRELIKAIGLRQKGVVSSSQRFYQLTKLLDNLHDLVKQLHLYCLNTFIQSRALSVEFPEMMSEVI
Method: 4. Determination of Progestational Action by Means of Transactivation Tests:
The test compounds were added eight hours later, and the cells were incubated with the compounds for 16 hours. The tests were carried out in triplicate. At the end of incubation the medium containing the effector was removed and replaced with lysis buffer. After luciferase assay substrate (Promega, #E1501) had been added, the 96-well plates were then put in a microplate luminometer (Pherastar, BMG Labtech), and the luminescence was measured. The IC50 values were evaluated using software for calculating dose-effect relations.

[4] = biological target: T1, mineralocorticoid receptor; assay: Antimineralocorticoid action by transactivation test (MDCK luciferase reporter cells); type: cell-based; details: in-vitro transactivation, 1 nM aldosterone; for IC50: read-out: Mineralocorticoid receptor Antagonism IC50
Method: 5. Determination of Antimineralocorticoid Action by Means of Transactivation Tests:
The antimineralocorticoid activity of the test substances was determined as for the transactivation tests described above.
The following modifications were undertaken: In this case reporter cell lines were used (MDCK cells) that express the human mineralocorticoid receptor, and transiently contain a reporter construct that contains luciferase under the control of a steroid hormone-responsive promoter.
For determination of antimineralocorticoid efficacy, 1 nM aldosterone (SIGMA A-6628, Lot 22H4033) was added to the cells, to achieve almost maximum stimulation of the reporter gene. Inhibition of the effect indicated a mineralocorticoid-antagonistic action of the substances (Table 2; for comparison, corresponding values for drospirenone (A)).

androgen receptor [5] = biological target: T2, androgen receptor; assay: cell-based; details: for Androgen receptor Agonism efficacy / Androgen receptor Antagonism efficacy: in-vitro transactivation, PC3 cells; for Androgen receptor Antagonism efficacy: 0.05 nM R1881
Method: 6. Determination of Androgenic/Antiandrogenic Action by Means of Transactivation Tests:
The androgenic/antiandrogenic action of the test substances was determined as for the transactivation tests described above.
The following modifications were made: In this case reporter cell lines were used (PC3 cells) that express the androgen receptor, and a reporter construct that contains luciferase under the control of a steroid hormone-responsive promoter.
For determination of the antiandrogenic efficacy, 0.05 nM R1881 was added to the cells, in order to achieve almost maximum stimulation of the reporter gene.

progesterone receptor = progesterone receptor (Homo sapiens (Human), UniProt P06401); details: for Progesterone receptor (PR) Competition factor: CF of 1 = affinity of progesterone, CF >1 lower affinity; for CF PR/CF MR: ratio of the competition factors CF(PR) and CF(MR); for IC50: read-out: Progesterone receptor (PR) IC50, receptor binding, 3H-progesterone displacement
Chain of progesterone receptor (P06401 whole entry, species assumed): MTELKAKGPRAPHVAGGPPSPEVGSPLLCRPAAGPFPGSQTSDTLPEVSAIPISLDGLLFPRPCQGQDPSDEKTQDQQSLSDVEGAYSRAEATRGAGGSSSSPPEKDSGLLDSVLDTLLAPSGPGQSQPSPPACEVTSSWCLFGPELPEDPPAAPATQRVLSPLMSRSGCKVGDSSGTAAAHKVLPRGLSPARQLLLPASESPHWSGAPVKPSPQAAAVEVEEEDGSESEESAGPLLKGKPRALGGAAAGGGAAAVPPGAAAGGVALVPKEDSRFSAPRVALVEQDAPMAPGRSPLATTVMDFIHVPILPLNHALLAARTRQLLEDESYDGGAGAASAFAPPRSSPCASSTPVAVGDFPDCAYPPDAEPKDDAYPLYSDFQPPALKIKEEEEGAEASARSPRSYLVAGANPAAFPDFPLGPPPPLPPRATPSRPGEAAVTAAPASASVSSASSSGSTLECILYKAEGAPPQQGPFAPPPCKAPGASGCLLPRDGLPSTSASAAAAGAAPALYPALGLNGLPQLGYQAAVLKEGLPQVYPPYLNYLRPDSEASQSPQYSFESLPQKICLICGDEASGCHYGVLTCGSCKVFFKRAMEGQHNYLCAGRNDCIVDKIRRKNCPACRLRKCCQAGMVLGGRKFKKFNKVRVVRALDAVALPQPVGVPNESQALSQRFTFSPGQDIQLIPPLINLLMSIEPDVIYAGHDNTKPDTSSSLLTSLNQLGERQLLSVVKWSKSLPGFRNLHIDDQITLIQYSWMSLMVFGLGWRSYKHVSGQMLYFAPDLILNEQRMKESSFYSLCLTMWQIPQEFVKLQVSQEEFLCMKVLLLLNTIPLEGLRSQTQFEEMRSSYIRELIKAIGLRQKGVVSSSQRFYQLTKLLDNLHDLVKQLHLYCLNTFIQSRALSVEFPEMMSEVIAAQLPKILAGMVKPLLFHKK
Method: Progesterone Receptor Binding Test:
Using cytosol from progesterone receptor-expressing insect cells (Hi5), competitive binding to the progesterone receptor was determined from the ability to displace ^3H-progesterone as reference substance from the receptor.

T1 sequence (P08235 whole entry): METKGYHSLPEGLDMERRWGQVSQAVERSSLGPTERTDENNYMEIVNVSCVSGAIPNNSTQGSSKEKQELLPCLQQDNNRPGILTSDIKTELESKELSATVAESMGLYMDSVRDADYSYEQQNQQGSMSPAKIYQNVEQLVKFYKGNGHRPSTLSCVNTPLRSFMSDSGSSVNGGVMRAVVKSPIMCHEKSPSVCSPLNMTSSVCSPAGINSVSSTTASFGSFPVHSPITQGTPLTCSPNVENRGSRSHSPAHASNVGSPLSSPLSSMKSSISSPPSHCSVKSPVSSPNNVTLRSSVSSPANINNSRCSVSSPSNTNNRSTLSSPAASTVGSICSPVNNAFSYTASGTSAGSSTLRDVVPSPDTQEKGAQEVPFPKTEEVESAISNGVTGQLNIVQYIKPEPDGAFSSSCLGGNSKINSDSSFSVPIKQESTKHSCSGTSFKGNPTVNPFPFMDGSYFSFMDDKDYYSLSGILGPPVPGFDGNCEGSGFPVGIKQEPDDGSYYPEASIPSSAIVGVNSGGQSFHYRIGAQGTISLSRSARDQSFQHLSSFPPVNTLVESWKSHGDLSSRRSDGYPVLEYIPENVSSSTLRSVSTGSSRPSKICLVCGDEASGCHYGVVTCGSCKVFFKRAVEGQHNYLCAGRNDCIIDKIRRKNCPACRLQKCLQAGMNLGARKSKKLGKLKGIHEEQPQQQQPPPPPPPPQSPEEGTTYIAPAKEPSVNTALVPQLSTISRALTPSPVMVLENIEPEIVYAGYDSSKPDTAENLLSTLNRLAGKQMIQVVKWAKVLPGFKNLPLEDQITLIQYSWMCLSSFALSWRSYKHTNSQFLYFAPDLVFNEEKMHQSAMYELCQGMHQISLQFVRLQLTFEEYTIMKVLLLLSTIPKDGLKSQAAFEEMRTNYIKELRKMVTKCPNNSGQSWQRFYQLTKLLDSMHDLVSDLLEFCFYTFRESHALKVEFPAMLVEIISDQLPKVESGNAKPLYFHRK

SMILES | Mineralocorticoid receptor (MR) Competition factor [1] | IC50 (androgen receptor [2]) [µM] | Androgen receptor Competition factor (androgen receptor [2]) | Progesterone receptor Agonism EC50 [3] | Mineralocorticoid receptor Antagonism efficacy [4] [%] | IC50 [4] [µM] | EC50 (androgen receptor [5]) [µM] | IC50 (androgen receptor [5]) [µM] | Androgen receptor Agonism efficacy (androgen receptor [5]) [%] | Androgen receptor Antagonism efficacy (androgen receptor [5]) [%] | Progesterone receptor (PR) Competition factor (progesterone receptor) | CF PR/CF MR (progesterone receptor) | IC50 (progesterone receptor) [µM] | EC50 [3] [µM] | Progesterone receptor Agonism efficacy [3] [%] | Mineralocorticoid receptor Antagonism IC50 [4]
CC[C@]12CC[C@H]3[C@@H]([C@H](C)CC4=CC(=O)CC[C@@H]43)[C@@H]1CC[C@@]21C=CC(=O)O1 (stereo in doubt) [Example 8A, 17β-Hydroxy-7α,18-dimethyl-19-nor-17α-pregna-4,20(Z)-dien-3-one-21-carboxylic acid γ-lactone] | 1.0 | 0.043 | 1.3 | inactive | 113.8 | 0.011 | 0.0017 | 1 | 78.75 | 5 | 5.95 | 5.95 | 0.16 | – | – | –
CC[C@@H]1CC2=CC(=O)CC[C@@H]2[C@H]2CC[C@@]3(CC)[C@@H](CC[C@@]34C=CC(=O)O4)[C@H]12 (stereo in doubt) [Example 9A, 17β-Hydroxy-7α-ethyl-18-methyl-19-nor-17α-pregna-4,20(Z)-dien-3-one-21-carboxylic acid γ-lactone] | 1.6 | 0.076 | 2.3 | inactive | 97.6 | 0.13 | 0.0051 | 1 | 63.33 | 5 | 25.12 | 15.70 | 0.67 | – | – | –
C=C[C@@H]1CC2=CC(=O)CC[C@@H]2[C@H]2CC[C@@]3(CC)[C@@H](CC[C@@]34C=CC(=O)O4)[C@@H]21 (stereo in doubt) [Example 10A, 17β-Hydroxy-7α-vinyl-18-methyl-19-nor-17α-pregna-4,20(Z)-dien-3-one-21-carboxylic acid γ-lactone] | 5.1 | 0.05 | 1.8 | – | 80.0 | 0.94 | 0.0013 | 1 | 74.78 | 5 | 18.90 | 3.71 | 0.45 | 0.14 | 52.4 | –
CC[C@]12CC[C@H]3[C@@H]([C@H](C4CC4)CC4=CC(=O)CC[C@@H]43)[C@@H]1CC[C@@]21C=CC(=O)O1 (stereo in doubt) [Example 11A, 17β-Hydroxy-7α-cyclopropyl-18-methyl-19-nor-17α-pregna-4,20(Z)-dien-3-one-21-carboxylic acid γ-lactone] | 2.4 | 0.094 | 3.4 | – | 88.8 | 0.23 | 0.01 | 0.016 | 41.38 | 34.45 | 21.03 | 8.76 | 0.5 | 0.12 | 47.7 | –
C[C@]12CC[C@H]3[C@@H]([C@H](C4CC4)CC4=CC(=O)CC[C@@H]43)[C@@H]1CC[C@@]21C=CC(=O)O1 (stereo in doubt) [Example 12A, 17β-Hydroxy-7α-cyclopropyl-19-nor-17α-pregna-4,20(Z)-dien-3-one-21-carboxylic acid γ-lactone] | 12.1 | 0.3 | 9.6 | inactive | 116.9 | 0.11 | 0.067 | 0.048 | 21.13 | 69.75 | 109.04 | 9.01 | 2.6 | – | – | –
CC[C@]12CC[C@H]3[C@@H](CCC4=C(Cl)C(=O)CC[C@@H]43)[C@@H]1CC[C@@]21C=CC(=O)O1 [Example 13, 4-Chloro-17β-hydroxy-18-methyl-19-nor-17α-pregna-4,20(Z)-dien-3-one-21-carboxylic acid γ-lactone] | 47.0 | 0.17 | 8.3 | – | – | – | 0.057 | 0.012 | 33.71 | 44.18 | 28.06 | 0.60 | 0.75 | 1 | 25.3 | inactive
C[C@]12CC[C@H]3[C@@H](CCC4=C(Cl)C(=O)CC[C@@H]43)[C@@H]1CC[C@@]21C=CC(=O)O1 [Example 14, 4-Chloro-17β-hydroxy-19-nor-17α-pregna-4,20(Z)-dien-3-one-21-carboxylic acid γ-lactone] | 39.0 | 0.14 | 7.5 | inactive | 21.6 | 0.7 | 0.1 | 0.0705 | 22.74 | 63.26 | 53.06 | 1.36 | 1.2 | – | – | –

— patent US8937058B2, “17-hydroxy-19-nor-21-carboxylic acid-steroid γ-lactone derivative, use thereof, and medicament containing the derivative” (priority 2007, dated 2015)
